The values that follow come from patent US12365667B2, “Sulfone pyridine alkyl amide-substituted heteroaryl compounds” (BRISTOL-MYERS SQUIBB COMPANY, priority 2017, dated 2025).

Read-outs that look alike come from different tables or passages of the source.

The experiment concerns IFNα-induced STAT phosphorylation (pSTAT5) in human whole blood. In words: IFNα-Induced STAT Phosphorylation in Human Whole Blood. The experiment is classed as cell-based. Conditions: 1 h incubation with compound, 1000 U/mL recombinant human IFNα A/D for 15 min, pSTAT5 in CD3 positive population, read-out: IFNα-Induced Stat Phosph. (IC50).

Take `[2H]C([2H])([2H])NC(=O)c1nnc(NC(=O)C2CC2)cc1Nc1ncccc1S(C)(=O)=O` [Example 159, 6-(cyclopropanecarboxamido)-N-trideuteromethyl-4-((3-(methylsulfonyl)pyridin-2-yl)amino)pyridazine-3-carboxamide]: the 50% inhibitory concentration (IC50) (Homo sapiens) amounted to 12 nM.
Regarding `CNC(=O)c1nnc(Nc2ccccn2)cc1Nc1ncccc1S(C)(=O)=O` [Example 160], the IC50 amounted to 11 nM.
Turning to `CNC(=O)c1nnc(Nc2cc(Cl)n(C)n2)cc1Nc1ncccc1S(C)(=O)=O` [Example 161], the IC50 came out at 47 nM.
Take `[2H]C([2H])([2H])NC(=O)c1nnc(NC(C)=O)cc1Nc1ncccc1S(C)(=O)=O` [Example 163, 6-acetamido-N-trideuteromethyl-4-((3-(methylsulfonyl)pyridin-2-yl)amino)pyridazine-3-carboxamide]: the 50% inhibitory concentration (IC50) (Homo sapiens) is 95 nM.
`CNC(=O)c1nnc(NC(=O)CC2CC2)cc1Nc1ncccc1S(C)(=O)=O` [Example 164]: the IC50 worked out at 88 nM.
Same read-out and setting: for `CNC(=O)c1nnc(Nc2cc(C3CC3)nc(C)n2)cc1Nc1ncccc1S(C)(=O)=O` [Example 165] the value was 23 nM.
As to `[2H]C([2H])([2H])NC(=O)c1nnc(Nc2ccn(C)n2)cc1Nc1ncccc1S(C)(=O)=O` [Example 166, N-trideuteromethyl-6-((1-methyl-1H-pyrazol-3-yl)amino)-4-((3-(methylsulfonyl)pyridin-2-yl)amino)pyridazine-3-carboxamide], the 50% inhibitory concentration (IC50) (Homo sapiens) worked out at 40 nM.
Consider `CNC(=O)c1nnc(Nc2ccn(C3CC3)n2)cc1Nc1ncccc1S(C)(=O)=O` [Example 167], for which the IC50 amounted to 60 nM.
Regarding `[2H]C([2H])([2H])NC(=O)c1nnc(Nc2ccc(C(C)(C)NC(C)C)cn2)cc1Nc1ncccc1S(C)(=O)=O` [Example 169, 6-((5-(2-(isopropylamino)propan-2-yl)pyridin-2-yl)amino)-N-(methyl-d3)-4-((3-(methylsulfonyl)pyridin-2-yl)amino)pyridazine-3-carboxamide], the IC50 (Homo sapiens) is 8 nM.
Still for that read-out and setting: under `[2H]C([2H])([2H])NC(=O)c1nnc(Nc2ccc(C(C)(C)OC(C)=O)cn2)cc1Nc1ncccc1S(C)(=O)=O` [Example 171, 2-(6-((6-((methyl-d3)carbamoyl)-5-((3-(methylsulfonyl)pyridin-2-yl)amino)pyridazin-3-yl)amino)pyridin-3-yl)propan-2-yl acetate] stands 9 nM; under `[2H]C([2H])([2H])NC(=O)c1nnc(Nc2ccc(C(F)F)cn2)cc1Nc1ncccc1S(C)(=O)=O` [Example 172, 6-((5-(difluoromethyl)pyridin-2-yl)amino)-N-(methyl-d3)-4-((3-(methylsulfonyl)pyridin-2-yl)amino)pyridazine-3-carboxamide], 18 nM; under `[2H]C([2H])([2H])NC(=O)c1nnc(Nc2cncc(C)n2)cc1Nc1ncccc1S(C)(=O)=O` [Example 173, N-(methyl-d3)-6-((6-methylpyrazin-2-yl)amino)-4-((3-(methylsulfonyl)pyridin-2-yl)amino)pyridazine-3-carboxamide], 17 nM.
In the case of `[2H]C([2H])([2H])NC(=O)c1nnc(NC(=O)C2CC2(Cl)Cl)cc1Nc1ncccc1S(C)(=O)=O` (stereo not drawn) [Example 174, 6-(2,2-dichlorocyclopropane-1-carboxamido)-N-(methyl-d3)-4-((3-(methylsulfonyl)pyridin-2-yl)amino)pyridazine-3-carboxamide], for the setting “Homo sapiens”, the 50% inhibitory concentration (IC50) is 1810 nM.
With `[2H]C([2H])([2H])NC(=O)c1nnc(NC(=O)[C@H]2C[C@@H]2C(F)(F)F)cc1Nc1ncccc1S(C)(=O)=O` [Example 175, N-(methyl-d3)-4-((3-(methylsulfonyl)pyridin-2-yl)amino)-6-((1S,2S)-2-(trifluoromethyl)cyclopropane-1-carboxamido)pyridazine-3-carboxamide], the 50% inhibitory concentration (IC50) (Homo sapiens) was determined as 278 nM.
On to `[2H]C([2H])([2H])NC(=O)c1nnc(NC(=O)[C@@H]2C[C@H]2C(F)(F)F)cc1Nc1ncccc1S(C)(=O)=O` [Example 176, N-(methyl-d3)-4-((3-(methylsulfonyl)pyridin-2-yl)amino)-6-((1R,2R)-2-(trifluoromethyl)cyclopropane-1-carboxamido)pyridazine-3-carboxamide], for which, for the setting “Homo sapiens”, the IC50 turned out to be 132 nM.
Regarding `[2H]C([2H])([2H])NC(=O)c1nnc(NC(=O)C2CC(F)(F)C2)cc1Nc1ncccc1S(C)(=O)=O` [Example 177, 6-(3,3-difluorocyclobutane-1-carboxamido)-N-(methyl-d3)-4-((3-(methylsulfonyl)pyridin-2-yl)amino)pyridazine-3-carboxamide], where the note is “Homo sapiens”, the IC50 was found to be 648 nM.
For the compound `[2H]C([2H])([2H])NC(=O)c1nnc(Nc2cc(C)nc(C)n2)cc1Nc1nc(F)ccc1S(C)(=O)=O` [Example 178, 6-((2,6-dimethylpyrimidin-4-yl)amino)-4-((6-fluoro-3-(methylsulfonyl)pyridin-2-yl)amino)-N-(methyl-d3)pyridazine-3-carboxamide], the IC50 (Homo sapiens) turned out to be 474 nM.
In the case of `CCC(=O)Nc1cc(Nc2nc(F)ccc2S(C)(=O)=O)c(C(=O)NC)nn1` [Example 179], the half-inhibitory concentration (IC50) is 1060 nM.
Turning to `CNC(=O)c1nnc(NC(=O)C2CC2)cc1Nc1nc(F)ccc1S(C)(=O)=O` [Example 180], the IC50 came out at 73 nM.
Turning to `CNC(=O)c1nnc(Nc2ccc(OC)nn2)cc1Nc1nc(F)ccc1S(C)(=O)=O` [Example 181], the IC50 was 550 nM.
In the case of `CNC(=O)c1nnc(Nc2ccc(-c3c(F)cccc3F)nn2)cc1Nc1nc(F)ccc1S(C)(=O)=O` [Example 182], the IC50 stood at 2230 nM.
Turning to `[2H]C([2H])([2H])NC(=O)c1nnc(Nc2ccc(OC)nn2)cc1Nc1nc(C)ccc1S(C)(=O)=O` [Example 183, 6-((6-methoxypyridazin-3-yl)amino)-N-(methyl-d3)-4-((6-methyl-3-(methylsulfonyl)pyridin-2-yl)amino)pyridazine-3-carboxamide], the IC50 (Homo sapiens) turned out to be 105 nM.
In the case of `CNC(=O)c1nnc(Nc2ccc(-c3c(F)cccc3F)nn2)cc1Nc1nc(C)ccc1S(C)(=O)=O` [Example 184], the IC50 is 263 nM.
Still for that read-out and setting: under `CNC(=O)c1nnc(Nc2cc(C)nc(C)n2)cc1Nc1nc(C)ccc1S(C)(=O)=O` [Example 185] stands 1730 nM.
Take `CCC(=O)Nc1cc(Nc2nc(C)ccc2S(C)(=O)=O)c(C(=O)NC)nn1` [Example 186]: the 50% inhibitory concentration (IC50) came to 132 nM.
As for `CNC(=O)c1nnc(NC(=O)C2CC2)cc1Nc1nc(C)ccc1S(C)(=O)=O` [Example 187], the IC50 came out at 32 nM.
The same measure, in the same setting: under `CNC(=O)c1nnc(Nc2ccc(C(C)(C)O)cn2)cc1Nc1nc(C)ccc1S(C)(=O)=O` [Example 188] stands 6 nM; under `CNC(=O)c1nnc(Nc2ccc(-n3cccc(C(F)(F)F)c3=O)cn2)cc1Nc1nc(C)ccc1S(C)(=O)=O` [Example 190], 61 nM.
Still for that read-out and setting: under `CCNC(=O)Nc1cc(Nc2nc(C)ccc2S(C)(=O)=O)c(C(=O)NC)nn1` [Example 191] stands 66 nM; under `CNC(=O)c1nnc(Nc2ccc(N3CCOCC3)cn2)cc1Nc1nc(C)ccc1S(C)(=O)=O` [Example 192], 13 nM.
Regarding `CCCCNC(=O)Nc1cc(Nc2nc(C)ccc2S(C)(=O)=O)c(C(=O)NC)nn1` [Example 193], the IC50 amounted to 165 nM.
`CNC(=O)c1nnc(Nc2cc(Cl)c(C(C)(C)O)cn2)cc1Nc1nc(C)ccc1S(C)(=O)=O` [Example 194]: the IC50 amounted to 35 nM.
As for `CNC(=O)c1nnc(Nc2ccn3nccc3n2)cc1Nc1nc(C)ccc1S(C)(=O)=O` [Example 195], the IC50 was 211 nM.
With `CNC(=O)c1nnc(Nc2ccc(N3CCOCC3=O)cn2)cc1Nc1nc(C)ccc1S(C)(=O)=O` [Example 196], the IC50 stood at 12 nM.
Same read-out and setting: for `CNC(=O)c1nnc(Nc2cc(C3CC3)ccn2)cc1Nc1nc(C)ccc1S(C)(=O)=O` [Example 197] the value was 58 nM; for `CNC(=O)c1nnc(NC(=O)C2CC2(C)C)cc1Nc1nc(C)ccc1S(C)(=O)=O` (stereo not drawn) [Example 198], 262 nM.
With `[2H]C([2H])([2H])NC(=O)c1nnc(NC(=O)CC)cc1Nc1nc(OC)ccc1S(C)(=O)=O` [Example 199, 4-((6-methoxy-3-(methylsulfonyl)pyridin-2-yl)amino)-N-(methyl-d3)-6-propionamidopyridazine-3-carboxamide], for the setting “Homo sapiens”, the IC50 came to 1030 nM.
Regarding `CNC(=O)c1nnc(NC(=O)C2CC2)cc1Nc1nc(OC)ccc1S(C)(=O)=O` [Example 200], the IC50 turned out to be 198 nM.
As to `CNC(=O)c1nnc(Nc2ccc(C(C)(C)O)cn2)cc1Nc1nc(OC)ccc1S(C)(=O)=O` [Example 201], the IC50 came out at 24 nM.
In the case of `CNC(=O)c1nnc(Nc2cc(Cl)c(C(C)(C)O)cn2)cc1Nc1nc(OC)ccc1S(C)(=O)=O` [Example 202], the IC50 was determined as 50 nM.
As for `CNC(=O)c1nnc(Nc2ccc(N3CCOCC3)cn2)cc1Nc1nc(OC)ccc1S(C)(=O)=O` [Example 203], the IC50 worked out at 46 nM.
The same measure, in the same setting: for `CNC(=O)c1nnc(Nc2ccn(C)n2)cc1Nc1nc(OC)ccc1S(C)(=O)=O` [Example 204] the value was 579 nM.
For `[2H]C([2H])([2H])NC(=O)c1nnc(Nc2ccc(C(C)(C)O)cc2)cc1Nc1nc(C2CC2)ccc1S(C)(=O)=O` [Example 207, 4-((6-cyclopropyl-3-(methylsulfonyl)pyridin-2-yl)amino)-6-((4-(2-hydroxypropan-2-yl)phenyl)amino)-N-(methyl-d3)pyridazine-3-carboxamide], where the note is “Homo sapiens”, the IC50 was determined as 229 nM.
The same measure, in the same setting: for `CNC(=O)c1nnc(Nc2ccc(OC)nn2)cc1Nc1ncccc1S(C)(=O)=O` [Example 209, 6-((6-methoxypyridazin-3-yl)amino)-N-methyl-4-((3-(methylsulfonyl)pyridin-2-yl)amino)pyridazine-3-carboxamide] the value was 56 nM; for `CCNC(=O)c1nnc(Nc2ccc(C(C)(C)O)cn2)cc1Nc1ncccc1S(C)(=O)=O` [Example 211, N-ethyl-6-((5-(2-hydroxypropan-2-yl)pyridin-2-yl)amino)-4-((3-(methylsulfonyl)pyridin-2-yl)amino)pyridazine-3-carboxamide], 90 nM.
